Experimental data taken from ChEMBL document CHEMBL1201862, “PubChem BioAssay data set” (2004).
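1) Cells in 96-well plates. 2) Compound, 48 h, 5 concentrations. 3) Linear interpolation between surrounding doses. 4) Unreached endpoint = highest concentration. GI50 = concentration required for 50% inhibition of growth.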 Active and inactive are the calls of the source. Rule as the data show it: active = GI50 up to about 1.1 µM and inactive = higher.

Experiments:
Assay in all cases: NCI anticancer screen, dose series, 48 h
[1] = system: M19-MEL
[2] = system: LXFL 529
[3] = system: NCI-H460
[4] = system: XF498
[5] = system: NCI-H23
[6] = system: KM12
[7] = system: UO-31
[8] = system: HOP-92
[9] = system: IGROV-1
[10] = system: SF-295
[11] = system: RXF 393
[12] = system: DMS-114
[13] = system: KM-20L2
[14] = system: A498

Row | Structure (SMILES) | GI50 [1] | GI50 [2] | GI50 [3] | GI50 [4] | GI50 [5] | GI50 [6] | GI50 [7] | GI50 [8] | GI50 [9] | GI50 [10] | GI50 [11] | GI50 [12] | GI50 [13] | GI50 [14]
1 | Cc1cc(C)c2c(c1)CN1CN2Cc2cc(C)cc(C)c21 | 23 µM (inactive) | 32.7 µM (inactive) | 15.9 µM (inactive) | 18.2 µM (inactive) | 20.8 µM (inactive) | 18.2 µM (inactive) | 24.4 µM (inactive) | > 10 µM (inactive) | 23.4 µM (inactive) | 18.7 µM (inactive) | 6.68 µM (inactive) |  |  | 
2 | CC1(C)Cc2c(oc3ncnc(N)c23)CS1 | > 100 µM (inactive) | > 100 µM (inactive) | > 100 µM (inactive) | > 100 µM (inactive) | > 100 µM (inactive) | > 100 µM (inactive) | 49.2 µM (inactive) |  | > 100 µM (inactive) | > 100 µM (inactive) |  | > 100 µM (inactive) | > 100 µM (inactive) | 
3 | CCOC(=O)C(=O)Nc1ccccc1C | > 100 µM (inactive) | > 100 µM (inactive) | > 100 µM (inactive) | 24.9 µM (inactive) | > 100 µM (inactive) |  | > 100 µM (inactive) | > 100 µM (inactive) | > 100 µM (inactive) |  | > 100 µM (inactive) | > 100 µM (inactive) | > 100 µM (inactive) | > 100 µM (inactive)
4 | NC(=O)c1cn(Cc2ccccc2)c(=O)n1Cc1ccccc1 | > 100 µM (inactive) | > 100 µM (inactive) | > 100 µM (inactive) | > 100 µM (inactive) | > 100 µM (inactive) | > 100 µM (inactive) | > 100 µM (inactive) | > 100 µM (inactive) | > 100 µM (inactive) | > 100 µM (inactive) | > 100 µM (inactive) |  | > 100 µM (inactive) | > 100 µM (inactive)
5 | Cc1cccc(N(CC(=O)O)S(=O)(=O)c2ccccc2)c1 | > 100 µM (inactive) | > 100 µM (inactive) | > 100 µM (inactive) | > 100 µM (inactive) | > 100 µM (inactive) | > 100 µM (inactive) | > 100 µM (inactive) | > 100 µM (inactive) | > 100 µM (inactive) | > 100 µM (inactive) | > 100 µM (inactive) |  | > 100 µM (inactive) | > 100 µM (inactive)
6 | O=C1C(Cl)=C(Cl)C(=O)N1c1cccc(C(F)(F)F)c1 | > 100 µM (inactive) | > 100 µM (inactive) | > 100 µM (inactive) | 3.77 µM (inactive) | > 100 µM (inactive) | > 100 µM (inactive) | > 100 µM (inactive) | > 100 µM (inactive) | > 100 µM (inactive) | > 100 µM (inactive) | 34 µM (inactive) | > 100 µM (inactive) | > 100 µM (inactive) | > 100 µM (inactive)
7 | O=C1Cc2ccccc2N1/N=C\c1ccc([N+](=O)[O-])cc1 | > 100 µM (inactive) |  | > 100 µM (inactive) | > 100 µM (inactive) | > 100 µM (inactive) | > 100 µM (inactive) | > 100 µM (inactive) | > 100 µM (inactive) | > 100 µM (inactive) | > 100 µM (inactive) |  | > 100 µM (inactive) | > 100 µM (inactive) | > 100 µM (inactive)
8 | Cn1c(=O)c2c(nc(C[N+]3([O-])CCOCC3)n2C)n(C)c1=O | > 100 µM (inactive) | > 100 µM (inactive) | > 100 µM (inactive) | > 100 µM (inactive) | > 100 µM (inactive) | > 100 µM (inactive) | > 100 µM (inactive) | > 100 µM (inactive) | > 100 µM (inactive) |  | > 100 µM (inactive) | 0.45 µM (active) | > 100 µM (inactive) | 
9 | CC[P+](C)(Cc1ccccc1)c1ccccc1 (stereo not given) | 43.4 µM (inactive) | 74.6 µM (inactive) | > 100 µM (inactive) | 24.7 µM (inactive) | > 100 µM (inactive) | > 100 µM (inactive) | > 100 µM (inactive) |  | > 100 µM (inactive) | > 100 µM (inactive) | > 100 µM (inactive) | 87.7 µM (inactive) | > 100 µM (inactive) | > 100 µM (inactive)
10 | [N-]=[N+]=C1C(=O)C2CC3CC(C2)CC1C3 | > 100 µM (inactive) | > 100 µM (inactive) | > 100 µM (inactive) | > 100 µM (inactive) | > 100 µM (inactive) | > 100 µM (inactive) | > 100 µM (inactive) | > 100 µM (inactive) | > 100 µM (inactive) | > 100 µM (inactive) | > 100 µM (inactive) | > 100 µM (inactive) | > 100 µM (inactive) | > 100 µM (inactive)
